Data: patent US7883715B2, “Pesticide compositions containing dicarboxylic acids” (Monsanto Technology LLC, priority 2002, dated 2011)
Where two headings read alike, the source gives them in different places.

Key:
ECHCF = assay: Greenhouse herbicidal effectiveness, ECHCF; assay type: in vivo, Japanese millet, barnyardgrass; conditions: for inhibition at 75 g/ha / inhibition at 100 g/ha / inhibition at 150 g/ha / inhibition at 200 g/ha: 408 h, Table 19B, 17 days after treatment, read-out: % inhibition ECHCF; for inhibition at 75 g/ha: 75 g a.e./ha; for inhibition at 150 g/ha: 150 g a.e./ha; for efficacy ECHCF: Table 19A, 16 days after treatment
Description: (§1) The following greenhouse testing procedure was used for evaluating compositions of the Examples to determine herbicidal effectiveness, except where otherwise indicated.
(§2) Seeds of the plant species indicated were planted in 88 mm square pots in a soil mix which was previously sterilized and prefertilized with a 14-14-14 NPK slow release fertilizer at a rate of 3.6 kg/m3. The pots were placed in a greenhouse with sub-irrigation. About one week after emergence, seedlings were thinned as needed, including removal of any unhealthy or abnormal plants, to create a uniform series of test pots.
(§3) The plants were maintained for the duration of the test in the greenhouse where they received a minimum of 14 hours of light per day. […] Exposure temperatures were not precisely controlled but averaged about 29° C. during the day and about 21° C. during the night. Plants were sub-irrigated throughout the test to ensure adequate soil moisture levels.
(§4) Pots were assigned to different treatments in a fully randomized experimental design with 6 replications. A set of pots was left untreated as a reference against which affects of the treatments could later be evaluated.
(§5) Application of glyphosate compositions was made by spraying with a track sprayer fitted with a 9501E nozzle calibrated to deliver a spray volume of 93 liters per hectare (l/ha) at a pressure of 165 kilopascals (kPa). After treatment, pots were returned to the greenhouse until ready for evaluation.
(§6) Treatments were made using dilute aqueous compositions. These could be prepared as spray compositions directly from their ingredients, or by dilution with water of preformulated concentrate compositions.
(§7) For evaluation of herbicidal effectiveness, all plants in the test were examined by a single practiced technician, who recorded percent control, a visual measurement of the effectiveness of each treatment by comparison with untreated plants. […] The reported % control values represent the average for all replicates of each treatment.

ABUTH = assay: Greenhouse herbicidal effectiveness, ABUTH; assay type: in vivo, velvetleaf; conditions: for inhibition at 75 g/ha / inhibition at 100 g/ha / inhibition at 150 g/ha / inhibition at 200 g/ha: Abutilon theophrasti, 408 h, Table 19B, 17 days after treatment, read-out: % inhibition ABUTH; for inhibition at 75 g/ha: 75 g a.e./ha; for inhibition at 150 g/ha: 150 g a.e./ha; for efficacy ABUTH: Table 19A, 16 days after treatment
Description: as §1, §2, §3, §4, §5, §6, §7

TRZVX = assay: Greenhouse herbicidal effectiveness, TRZVX; assay type: in vivo, wheat; conditions: Table 19A, 16 days after treatment
Description: as §1, §2, §3, §4, §5, §6, §7

[1] = 100 g a.e./ha, no OTH22, no OTH1
[2] = 200 g a.e./ha, no OTH22, no OTH1
[3] = 30 g a.e./ha, tank mix OTH1 1 % v/v
[4] = 70 g a.e./ha, tank mix OTH1 1 % v/v
[5] = 100 g a.e./ha, tank mix OTH1 1 % v/v
[6] = 200 g a.e./ha, tank mix OTH1 1 % v/v

Row | Compound | efficacy ECHCF (ECHCF; 30 g a.e./ha, no OTH1) | efficacy ECHCF (ECHCF; [3]) | efficacy ECHCF (ECHCF; 70 g a.e./ha, no OTH1) | efficacy ECHCF (ECHCF; [4]) | efficacy ECHCF (ECHCF; 100 g a.e./ha, no OTH1) | efficacy ECHCF (ECHCF; [5]) | efficacy ECHCF (ECHCF; 200 g a.e./ha, no OTH1) | efficacy ECHCF (ECHCF; [6]) | efficacy TRZVX (TRZVX; 30 g a.e./ha, no OTH1) | efficacy TRZVX (TRZVX; [3]) | efficacy TRZVX (TRZVX; 70 g a.e./ha, no OTH1) | efficacy TRZVX (TRZVX; [4]) | efficacy TRZVX (TRZVX; 100 g a.e./ha, no OTH1) | efficacy TRZVX (TRZVX; [5]) | efficacy TRZVX (TRZVX; 200 g a.e./ha, no OTH1) | efficacy TRZVX (TRZVX; [6]) | efficacy ABUTH (ABUTH; 30 g a.e./ha, no OTH1) | efficacy ABUTH (ABUTH; [3]) | efficacy ABUTH (ABUTH; 70 g a.e./ha, no OTH1) | efficacy ABUTH (ABUTH; [4]) | other results
1 | CCOc1cc(Oc2ccc(C(F)(F)F)cc2Cl)ccc1[N+](=O)[O-] [oxyfluorfen] |  |  |  |  |  |  |  |  |  |  |  |  |  |  |  |  |  |  |  |  | inhibition at 75 g/ha (ECHCF; OTH1 1 % v/v): 0%; inhibition at 75 g/ha (ECHCF; no OTH22, no OTH1): 0%; inhibition at 100 g/ha (ECHCF; 100 g a.e./ha, OTH1 1 % v/v): 0%; inhibition at 100 g/ha (ECHCF; [1]): 0%; inhibition at 150 g/ha (ECHCF; OTH1 1 % v/v): 0%; inhibition at 150 g/ha (ECHCF; no OTH22, no OTH1): 0%; inhibition at 200 g/ha (ECHCF; 200 g a.e./ha, OTH1 1 % v/v): 2%; inhibition at 200 g/ha (ECHCF; [2]): 3%; inhibition at 75 g/ha (ABUTH; OTH1 1 % v/v): 80%; inhibition at 75 g/ha (ABUTH; no OTH22, no OTH1): 81%; inhibition at 100 g/ha (ABUTH; 100 g a.e./ha, OTH1 1 % v/v): 82%; inhibition at 100 g/ha (ABUTH; [1]): 82%; inhibition at 150 g/ha (ABUTH; OTH1 1 % v/v): 87%; inhibition at 150 g/ha (ABUTH; no OTH22, no OTH1): 84%; inhibition at 200 g/ha (ABUTH; 200 g a.e./ha, OTH1 1 % v/v): 92%; inhibition at 200 g/ha (ABUTH; [2]): 91%
2 | C[C@@H](Oc1ccc(Oc2ccc(C(F)(F)F)cn2)cc1)C(=O)O [fluazifop-p] | 98 | 97 | 100 | 100 | 100 | 100 | 100 | 100 | 70 | 73 | 85 | 83 | 91 | 93 | 97 | 98 | 0, 0, 0, 0 | 0, 0, 0, 0 | 0, 0, 0, 0 | 0, 0, 0, 0 | efficacy ABUTH (ABUTH; 100 g a.e./ha, no OTH1): 0, 0, 0, 0; efficacy ABUTH (ABUTH; [5]): 0, 0, 0, 0; efficacy ABUTH (ABUTH; 200 g a.e./ha, no OTH1): 0, 0, 0, 0; efficacy ABUTH (ABUTH; [6]): 0, 0, 0, 0
3 | CCc1cnc(C2=NC(C)(C(C)C)C(=O)N2)c(C(=O)O)c1 (stereo not shown) [imazethapyr] | 68 | 66 | 72 | 71 | 75 | 74 | 87 | 80 | 14 | 25 | 41 | 33 | 52 | 50 | 73 | 67 | 73 | 72 | 80 | 81 | efficacy ABUTH (ABUTH; 100 g a.e./ha, no OTH1): 82; efficacy ABUTH (ABUTH; [5]): 85; efficacy ABUTH (ABUTH; 200 g a.e./ha, no OTH1): 85; efficacy ABUTH (ABUTH; [6]): 89
4 | c1cc[n+]2c(c1)-c1cccc[n+]1CC2 [diquat] | 19 | 11 | 33 | 24 | 43 | 33 | 46 | 50 | 3 | 14 | 7 | 16 | 27 | 19 | 46 | 47 | 5 | 10 | 15 | 30 | efficacy ABUTH (ABUTH; 100 g a.e./ha, no OTH1): 20; efficacy ABUTH (ABUTH; [5]): 41; efficacy ABUTH (ABUTH; 200 g a.e./ha, no OTH1): 32; efficacy ABUTH (ABUTH; [6]): 57
